Read-outs that look alike come from different tables or passages of the source.
What was measured:
human P450 1A2 [1] = biological target: T1, human P450 1A2 (Homo sapiens, UniProt P05177); test: Metabolism (hydroxylation) of substrates using transformed yeast cells or their microsomal fractions expressing human P450 1A2 and yeast NADPH-P450 reductase; settings: microsomes
T1 sequence (P05177 1-516): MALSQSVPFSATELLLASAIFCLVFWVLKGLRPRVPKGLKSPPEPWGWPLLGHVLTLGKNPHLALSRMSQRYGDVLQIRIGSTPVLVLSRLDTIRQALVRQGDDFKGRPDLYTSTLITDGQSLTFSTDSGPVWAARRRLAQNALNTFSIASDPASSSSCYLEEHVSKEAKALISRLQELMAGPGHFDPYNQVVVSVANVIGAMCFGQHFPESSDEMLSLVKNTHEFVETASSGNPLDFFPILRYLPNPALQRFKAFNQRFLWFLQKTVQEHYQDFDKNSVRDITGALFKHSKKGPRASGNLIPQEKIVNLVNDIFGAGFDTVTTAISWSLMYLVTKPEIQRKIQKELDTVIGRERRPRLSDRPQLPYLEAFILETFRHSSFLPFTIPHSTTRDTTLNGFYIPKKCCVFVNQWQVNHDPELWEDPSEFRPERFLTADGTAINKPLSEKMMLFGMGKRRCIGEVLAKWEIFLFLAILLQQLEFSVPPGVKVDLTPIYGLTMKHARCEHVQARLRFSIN
Method: (§1) Then 2 ml of dichloromethane was added.

human P450 1A1 = biological target: T2, human P450 1A1 (Homo sapiens, UniProt P04798); settings: microsomes
T2 sequence (P04798 1-512): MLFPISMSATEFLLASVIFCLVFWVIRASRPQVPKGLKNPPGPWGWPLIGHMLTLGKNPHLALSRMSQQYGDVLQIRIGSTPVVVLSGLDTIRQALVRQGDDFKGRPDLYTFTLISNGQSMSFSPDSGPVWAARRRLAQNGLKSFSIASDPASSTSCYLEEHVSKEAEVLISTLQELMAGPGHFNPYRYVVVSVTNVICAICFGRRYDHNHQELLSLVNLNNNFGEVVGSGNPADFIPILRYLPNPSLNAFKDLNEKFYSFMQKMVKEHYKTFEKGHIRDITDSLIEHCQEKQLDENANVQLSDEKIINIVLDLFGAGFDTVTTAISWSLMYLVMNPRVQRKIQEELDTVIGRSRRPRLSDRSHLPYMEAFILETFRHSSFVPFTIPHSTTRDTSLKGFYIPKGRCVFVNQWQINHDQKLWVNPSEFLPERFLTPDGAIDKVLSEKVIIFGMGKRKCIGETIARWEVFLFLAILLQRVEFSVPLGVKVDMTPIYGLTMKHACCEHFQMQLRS
Method: (§5) To the supernatant, 2 ml of dichloromethane was added. After sufficient stirring, the dichloromethane layer was recovered by centrifugation (5000×g, 10 min), and the solvent was evaporated under reduced pressure. The resultant residue was dissolved in 100 μl of acetonitrile, and the solution was analyzed by HPLC under the following conditions.
(§6) Then 2 ml of dichloromethane was added. After sufficient stirring, the solution was centrifuged again (5000×g, 10 min). The dichloromethane layer was recovered from the separated layer and the solvent was evaporated under reduced pressure. The resultant residue was dissolved in 100 μl of acetonitrile, and the solution was analyzed by HPLC under the following conditions.
Then 2 ml of dichloromethane was added to the supernatant and vigorously stirred and centrifuged (5000×g, 10 min). The dichloromethane layer was recovered from the separated layer, then evaporated under reduced pressure. The obtained residue was dissolved in 100 μl of acetonitrile, and the solution was analyzed by HPLC under the following conditions.
Then 2 ml of dichloromethane was added to the solution, and the solution was stirred vigorously and centrifuged (15,000×g, 5 min). The dichloromethane layer was recovered, and the solvent was removed under reduced pressure. The obtained residue was dissolved in 100 μl of acetonitrile and the solution was subjected to analysis by HPLC under the same conditions as above.
Then the solution was centrifuged (5000×g, 10 min) to give a supernatant. The obtained supernatant solution was subjected to the HPLC analysis under the following conditions.
(§7) Then the solution was centrifuged (5000×g, 10 min) to give a supernatant. 62.5 μl of 15% trichloroacetic acid and 2 ml of chloroform were added to the obtained supernatant solution, and the resultant solution was stirred well. The chloroform layer was recovered from the separated layer. Then 4 ml of sodium hydroxide solution containing 0.1 M NaCl was added to the solution and centrifuged again (5000×g, 10 min).
Then perchlorate was added to the solution, so that the final concentration of the perchlorate was 10% (v/v). The solution was sufficiently stirred and centrifuged (15,000×g, 15 min) to give the supernatant. The obtained supernatant was subjected to HPLC analysis according to the following conditions.
Then the solution was diluted with equal volume of methanol, sufficiently stirred and centrifuged (15,000×g, 5 min) to give the supernatant. The obtained supernatant was subjected to HPLC analysis according to the following conditions.

human P450 2C19 = human P450 2C19 (Homo sapiens, UniProt P33261); test: Metabolism (hydroxylation) of substrates using transformed yeast cells or microsomal fractions expressing human P450 2C19; settings: microsomes
Method: as §1

human P450 2E1 [2] = biological target: T3, human P450 2E1 (Homo sapiens, UniProt P05181); test: Metabolism (hydroxylation) of substrates using transformed yeast cells or microsomal fractions expressing human P450 2E1; settings: microsomes
Method: as §1

human P450 2B6 = biological target: T4, human P450 2B6 (Homo sapiens, UniProt P20813); test: Metabolism (hydroxylation) of substrates using transformed yeast cells or microsomal fractions expressing human P450 2B6; settings: microsomes
T4 sequence (P20813 1-491): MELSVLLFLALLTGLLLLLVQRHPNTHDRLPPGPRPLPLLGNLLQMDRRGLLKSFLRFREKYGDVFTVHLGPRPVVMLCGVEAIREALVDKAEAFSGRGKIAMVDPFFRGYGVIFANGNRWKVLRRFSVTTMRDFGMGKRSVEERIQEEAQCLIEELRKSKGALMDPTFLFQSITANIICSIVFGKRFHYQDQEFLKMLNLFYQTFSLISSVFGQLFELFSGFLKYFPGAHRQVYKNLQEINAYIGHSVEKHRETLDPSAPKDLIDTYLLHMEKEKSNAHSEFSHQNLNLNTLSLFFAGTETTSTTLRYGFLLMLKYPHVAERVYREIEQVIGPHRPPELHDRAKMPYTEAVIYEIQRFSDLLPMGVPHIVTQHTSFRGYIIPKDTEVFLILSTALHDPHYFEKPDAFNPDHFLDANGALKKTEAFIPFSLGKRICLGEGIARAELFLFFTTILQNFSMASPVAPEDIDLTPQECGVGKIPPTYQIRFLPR
Method: as §1

human P450 2D6 = test: Metabolism (hydroxylation) of substrates using transformed yeast cells or microsomal fractions expressing human P450 2D6; settings: microsomes
Method: as §1

human P450 2C8 = test: Metabolism (hydroxylation) of substrates using transformed yeast cells or microsomal fractions expressing human P450 2C8; settings: microsomes
Method: as §1

[3] = test system: other human P450 molecular species
Method: as §5, §6, §7
Then perchlorate was added to the solution, so that the final concentration of the perchlorate was 10% (v/v). The solution was sufficiently stirred and centrifuged (15,000×g, 15 min) to give the supernatant. […]

human P450 2C9 = human P450 2C9 (Homo sapiens, UniProt P11712); test: Metabolism (hydroxylation) of substrates using transformed yeast cells or microsomal fractions expressing human P450 2C9; settings: microsomes
Method: as §1

human P450 3A4 = test: Metabolism (hydroxylation) of substrates using transformed yeast cells or microsomal fractions expressing human P450 3A4; settings: microsomes
Method: as §1

human P450 2C18 = biological target: T5, human P450 2C18 (Homo sapiens, UniProt P33260); test: Metabolism (hydroxylation) of substrates using transformed yeast cells or microsomal fractions expressing human P450 2C18; settings: microsomes
T5 sequence (P33260 26-490): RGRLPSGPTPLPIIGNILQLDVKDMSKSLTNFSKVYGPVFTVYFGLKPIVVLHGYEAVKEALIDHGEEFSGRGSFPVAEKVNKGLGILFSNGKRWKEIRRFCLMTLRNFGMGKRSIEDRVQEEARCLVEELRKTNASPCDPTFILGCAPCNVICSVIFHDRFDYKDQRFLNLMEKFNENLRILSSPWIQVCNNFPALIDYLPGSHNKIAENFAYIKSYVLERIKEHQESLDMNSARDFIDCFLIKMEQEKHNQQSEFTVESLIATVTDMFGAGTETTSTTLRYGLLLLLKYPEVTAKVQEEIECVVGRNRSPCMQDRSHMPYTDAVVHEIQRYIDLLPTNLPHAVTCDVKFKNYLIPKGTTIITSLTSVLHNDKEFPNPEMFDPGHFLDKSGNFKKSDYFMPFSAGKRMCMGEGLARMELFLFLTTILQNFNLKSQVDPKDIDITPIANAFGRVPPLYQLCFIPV
Method: as §1

human P450 2A6 = test: Metabolism (hydroxylation) of substrates using transformed yeast cells or microsomal fractions expressing human P450 2A6; settings: microsomes
Method: as §1

[4] = test system: human cytochrome P450 2A6; test: Ames test using yeast S-9 Mix fraction and microsomal fraction, human P450 2A6 as metabolic activation source; type: cell-based
From the text: (§2) The toxic effects, in particular mutagenicity, of the resulting metabolites can be determined by a conventional biological analytic method such as the Ames Test. For example, the metabolites present in the reaction solution are allowed to react with mutant bacteria such as histidine requiring Salmonella strain (Salmonella typhimurium (his−)), or tryptophan requiring Escherichia coil (Escherichia coil (trp−)), and then determine whether the metabolites cause the back mutation of the bacteria whether the colonies of revertant which is not requiring the amino acid (His+ or Trp+) are formed, and, if formed, how many colonies. In place of the bacteria, mammalian cells such as MCL-5 cells, which are sensitive to cell toxicity of a chemical compound (U.S. Pat. No. 4,532,204), can be used.
(§3) The Ames test method was in accordance with the customary method described, for example, in Mutat. Res., (1975) 31, 347. 2-Aminoanthrathene which is an arylamine type compound was used as a specimen compound. […]

[5] = biological target: T6, human cytochrome P450 2C8 (Homo sapiens, UniProt P10632); test: Ames test using yeast S-9 Mix fraction and microsomal fraction, human P450 2C8 as metabolic activation source; type: cell-based
T6 construct: The entire protein coding region of the P450 2C8 gene was amplified by the PCR method; made in house; host or cells: Saccharomyces cerevisiae AH22 (whole transformed cells, S-9 Mix or microsomal fractions)
T6 sequence (P10632 1-490): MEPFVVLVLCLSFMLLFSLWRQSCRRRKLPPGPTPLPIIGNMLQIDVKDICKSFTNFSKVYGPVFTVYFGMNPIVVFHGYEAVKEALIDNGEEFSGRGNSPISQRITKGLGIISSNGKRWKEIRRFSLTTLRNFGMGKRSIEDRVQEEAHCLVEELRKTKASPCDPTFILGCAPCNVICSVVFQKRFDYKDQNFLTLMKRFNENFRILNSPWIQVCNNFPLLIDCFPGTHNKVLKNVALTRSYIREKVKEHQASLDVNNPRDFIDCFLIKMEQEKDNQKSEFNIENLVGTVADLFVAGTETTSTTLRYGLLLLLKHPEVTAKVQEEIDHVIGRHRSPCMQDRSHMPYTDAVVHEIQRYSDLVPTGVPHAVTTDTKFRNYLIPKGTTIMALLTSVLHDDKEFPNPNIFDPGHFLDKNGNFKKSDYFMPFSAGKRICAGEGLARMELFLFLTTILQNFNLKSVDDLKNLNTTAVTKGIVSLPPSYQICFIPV
From the text: as §2, §3

[6] = test system: human cytochrome P450 3A4; test: Ames test using yeast S-9 Mix fraction and microsomal fraction, human P450 3A4 as metabolic activation source; type: cell-based
From the text: as §2, §3

human P450 2E1 [7] = biological target: T3, human P450 2E1; test: Ames test using yeast S-9 Mix fraction and microsomal fraction, human P450 2E1 as metabolic activation source; type: cell-based
From the text: as §2
(§4) The Ames test method was in accordance with the customary method described, for example, in Mutat. Res., (1975) 31, 347. 2-Aminoanthrathene which is an arylamine type compound was used as a specimen compound. (1) Rat S-9 Mix supernatant fraction (obtained by homogenizing liver and then subjected to centrifugation (9000×g, 10 min), manufactured by Kikkoman) containing each kind of rat P450 molecular species at the concentration of 1200 pmol per 1 sample and (2) Yeast S-9 Mix fraction obtained from each kind of yeast cells expressing human P450 or a microsomal fraction prepared from the yeast S-9 Mix fraction were used as a metabolic activation source in the Ames test.

human P450 1A2 [8] = biological target: T1, human P450 1A2; test: Ames test using yeast S-9 Mix fraction and microsomal fraction, human P450 1A2 as metabolic activation source; type: cell-based; design: made in house; host or cells: Saccharomyces cerevisiae AH22 (whole transformed cells, S-9 Mix or microsomal fractions)
From the text: as §2, §4

[9] = Table 1 hydroxylation activity, metabolic activation in Ames test
[10] = compound at 1 μg/plate (90 mm dia.), yeast S-9 Mix fraction and microsomal fraction

T3 sequence (P05181 whole entry): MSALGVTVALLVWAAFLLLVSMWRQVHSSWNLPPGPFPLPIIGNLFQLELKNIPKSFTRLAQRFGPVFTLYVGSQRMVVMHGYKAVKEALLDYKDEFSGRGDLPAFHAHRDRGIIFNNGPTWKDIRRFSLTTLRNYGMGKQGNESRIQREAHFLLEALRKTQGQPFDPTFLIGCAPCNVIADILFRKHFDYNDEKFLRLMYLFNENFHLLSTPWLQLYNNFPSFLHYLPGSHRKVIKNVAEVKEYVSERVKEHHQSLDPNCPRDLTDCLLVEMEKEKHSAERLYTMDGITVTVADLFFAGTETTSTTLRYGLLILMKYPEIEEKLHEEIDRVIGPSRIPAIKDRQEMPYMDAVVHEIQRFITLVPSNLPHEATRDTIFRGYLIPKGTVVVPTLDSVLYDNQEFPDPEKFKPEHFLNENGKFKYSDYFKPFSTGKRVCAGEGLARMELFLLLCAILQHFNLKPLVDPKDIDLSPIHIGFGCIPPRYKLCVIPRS
Chain of human P450 2C19 (P33261 whole entry): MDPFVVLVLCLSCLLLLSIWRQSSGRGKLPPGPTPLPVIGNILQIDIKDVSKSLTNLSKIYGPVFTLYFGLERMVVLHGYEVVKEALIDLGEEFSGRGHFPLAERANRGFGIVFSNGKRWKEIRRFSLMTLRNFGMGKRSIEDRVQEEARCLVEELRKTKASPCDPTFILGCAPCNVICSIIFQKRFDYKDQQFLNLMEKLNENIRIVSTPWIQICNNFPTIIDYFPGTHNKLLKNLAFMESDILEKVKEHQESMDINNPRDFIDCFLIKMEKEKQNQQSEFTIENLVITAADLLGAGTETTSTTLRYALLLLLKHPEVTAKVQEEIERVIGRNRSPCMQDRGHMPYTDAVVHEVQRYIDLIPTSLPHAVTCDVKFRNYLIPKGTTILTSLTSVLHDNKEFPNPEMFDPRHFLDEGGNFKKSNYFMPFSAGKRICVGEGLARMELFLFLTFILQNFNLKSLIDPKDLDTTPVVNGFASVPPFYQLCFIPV
Chain of human P450 2C9 (P11712 whole entry): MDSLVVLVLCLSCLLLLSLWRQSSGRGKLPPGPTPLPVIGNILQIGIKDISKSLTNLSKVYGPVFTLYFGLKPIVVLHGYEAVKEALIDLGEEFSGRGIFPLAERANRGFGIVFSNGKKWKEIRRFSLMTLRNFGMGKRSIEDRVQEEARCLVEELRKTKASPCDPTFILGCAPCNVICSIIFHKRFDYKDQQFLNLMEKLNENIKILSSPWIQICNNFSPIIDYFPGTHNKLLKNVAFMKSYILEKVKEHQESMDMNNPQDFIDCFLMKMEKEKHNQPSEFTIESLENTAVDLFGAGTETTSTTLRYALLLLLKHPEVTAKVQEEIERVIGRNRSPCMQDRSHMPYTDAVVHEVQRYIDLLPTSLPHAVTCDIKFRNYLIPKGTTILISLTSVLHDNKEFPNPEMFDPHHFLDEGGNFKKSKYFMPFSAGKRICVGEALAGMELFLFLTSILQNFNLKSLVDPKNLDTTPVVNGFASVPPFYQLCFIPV

SMILES | Hydroxylation activity, human P450 1A2 (human P450 1A2 [1]) | Hydroxylation activity, human P450 1A1 (human P450 1A1) | Hydroxylation activity, human P450 2C19 (human P450 2C19) | Hydroxylation activity, human P450 2E1 (human P450 2E1 [2]) | Hydroxylation activity, human P450 2B6 (human P450 2B6) | Hydroxylation activity, human P450 2D6 (human P450 2D6) | Hydroxylation activity, human P450 2C8 (human P450 2C8) | Hydroxylation activity, human P450 2C9 (human P450 2C9) | Hydroxylation activity, human P450 3A4 (human P450 3A4) | Hydroxylation activity, human P450 2C18 (human P450 2C18) | Hydroxylation activity, human P450 2A6 (human P450 2A6) | other results
O=c1ccc2ccccc2o1 [Coumarin] | − | − | − | − | − | − | − | − | − | − | + + + | Hydroxylated metabolite / hydroxylation activity with yeast expressing other human P450 than those named [3]: no activity
CC(=O)Nc1ccccc1 [Acetanilide] | + + + | + + | + + | + + | + + | + + + | + + | + + | + | + + | + + | 
CCOc1ccc2ccc(=O)oc2c1 [7-Ethoxycoumarin] | + + | + + + | + | + + | + + + | + + | + | + | + | + | + + | 
Nc1ccc2cc3ccccc3cc2c1 [2-Aminoanthracene] |  |  |  |  |  |  |  |  |  |  |  | Ames test revertant colonies in words, human cytochrome P450 2A6 [4]: not found; Activity in Table 1 for 2-aminoanthracene (Ames test), human P450 2A6 [4, 9]: −; Ames test revertant colonies in words, human cytochrome P450 2C8 [5]: not found; Activity in Table 1 for 2-aminoanthracene (Ames test), human P450 2C8 [5, 9]: −; Ames test revertant colonies in words, human cytochrome P450 3A4 [6]: not found; Activity in Table 1 for 2-aminoanthracene (Ames test), human P450 3A4 [6, 9]: −; Ames test activity in words, human P450 2E1 (human P450 2E1 [7]): moderate activity; Activity in Table 1 for 2-aminoanthracene (Ames test), human P450 2E1 (human P450 2E1 [7]; [9]): + +; Revertant colonies detected, yeast expressing human P450 2E1 (AH22/p2E1R) (human P450 2E1 [7]; [10]): more than 1000 revertant colonies; Ames test activity in words, human cytochrome P450 1A2 (human P450 1A2 [8]): high activity; Concentration at which mutagenicity can be detected (human P450 1A2 [8]; 20 pmol of P450 1A2 used): about 0.1 μg; Activity in Table 1 for 2-aminoanthracene (Ames test), human P450 1A2 (human P450 1A2 [8]; [9]): + + +; Revertant colonies detected, yeast expressing human P450 1A2 (AH22/p1A2R) (human P450 1A2 [8]; [10]): more than 1000 revertant colonies
CCCCNC(=O)NS(=O)(=O)c1ccc(C)cc1 [Tolbutamide] | − | − | + + | − | − | − | + |  |  | + | − | Hydroxylated metabolite / hydroxylation activity with yeast expressing other human P450 than those named ([3]; microsomes): not detected

Source: patent publication US6620593B1, “Method for safety evaluation of chemical compound using recombinant yeast expressing human cytochrome P450” (Sumitomo Chemical Company, Limited, priority 1993, dated 2003)
